US9822128B1, “Substituted spirooxindoles” (KING SAUD UNIVERSITY, priority 2017, dated 2017)

Legend:
[1] = tested on: p53 in HCT-116 (wt p53) cells; experiment: p53 activation, p53 protein level by flow cytometry; type: cell-based, human; details: for shift in fluorescence (p53 antibody): 48 hours, untreated 23%
Protocol: The determination of p53 protein level by flow cytometry was applied because it measures the level in a single cell and determines the heterogeneity of expression within a population of cells. HCT-116 (wt p53) cells were seeded at 5*10^4 cells/mL density in a 6-well plate (2 ml/well). The cells were treated with 1 or 2 μM of compound 4d for 48 hrs, and the cells were collected after trypsin enzyme treatment and washed two times with ice-cold 1×PBS. The cells were fixed with 4% paraformaldehyde for fixation and permeabilization, then washed one time with 1× ice-cold PBS and one time with PBS containing 2% FBS. Then an aliquot of the cells was incubated with an anti-p53 antibody for one hour, and then washed two times with PBS. After that, the same cells were stained with PI (propidium iodide). […] In order to confirm the effect of compound 4d on the activation of p53, we incubated the colon cancer cells with 2 μM of compound 4d, and after 24 hours, the cells were stained with the antibody against p53. […] See FIGS. 6B (1 μM treatment with compound 4d for 48 hours; 52.7% shift in fluorescence) and 6C (2 μM treatment with compound 4d for 48 hours; 60.1% shift in fluorescence) compared to FIG. 6A (untreated cancer cells; 23% shift in fluorescence).

HCT-116 cells = experiment: Induction of apoptosis (annexin-V / 7-AAD flow cytometry); type: cell-based, human
Protocol: The HCT-116 cells were seeded at 5*10^4 cells/mL density in a 6-well plate. The cells were treated with 2 μM 4d for 48 hrs, and the cells were collected after trypsin enzyme treatment and washed two times with ice-cold 1×PBS. The cells were incubated for 2 hours at 4° C. in PBS, then centrifuged and re-suspended in 1× binding buffer. Then 5 μL PE annexin-V and 5 μL 7-amino-actinomycin D (7-AAD) were added to 100 μL of cell suspension and incubated for 15 min at RT in the dark, and then 400 μL of 1× binding buffer was added to the cell suspension and analyzed within 1 hour by BD Accuri™ C6 Plus flow cytometer. The following controls were used to set up the machine: cells unstained with PE annexin V and 7-AAD, cells stained with PE annexin V only, cells stained with 7-AAD only. The level of apoptotic cells, whether in early (+ve annexin-V and −ve PI) or late stage (+ve Annexin-V and +ve PI), was determined. […] The results are shown in FIG. 5A (untreated cells) and FIG. 5B (treated with just 1 μM of compound 4d for 24 hours).

## O=C(/C=C/c1ccc(Cl)cc1Cl)[C@H]1[C@H](c2ccc(Cl)cc2Cl)[C@H]2CSCN2[C@]12C(=O)Nc1ccccc12 [Compound 4d, (3R,6′S,7′R,7a′S)-7′-(2,4-dichlorophenyl)-6′-((E)-3-(2,4-dichlorophenyl)acryloyl)-1′,6′,7′,7a′-tetrahydro-3′H-spiro[indoline-3,5′-pyrrolo[1,2-c]thiazol]-2-one]
[1]; HCT-116, 1 μM
  shift in fluorescence (p53 antibody): 52.7%
[1]; HCT-116, 2 μM
  shift in fluorescence (p53 antibody): 60.1%
[1]; colon cancer cells, 2 μM, 24 hours
  cell population positive for p53: significant increase
HCT-116 cells; HCT-116, 1 μM, 24 hours
  induction of apoptosis: could induce the apoptosis
HCT-116 cells; HCT-116, 2 μM, 48 hours
  apoptotic cells: greatly increased the apoptotic cells
